From ChEMBL document CHEMBL4422617, “Recent advances in the discovery of small molecules targeting glioblastoma” (Eur J Med Chem, 2019) come the findings set out here.

Molecules are shown by their SMILES.

Data set [1] in a line: Cytotoxicity against human GBM6 cells after 72 hrs by MTS assay. Conditions: GBM6, 72 h, read-out: ED50 (the source's name). It counts as functional. A general note: Tetrazolium dyes change colour on reduction, which living cells bring about.
Data set [2] deals with U-251. The experiment in a line: Antiproliferative activity against human U251 cells after 5 days by CyQuantGR dye-based fluorescence assay. It counts as functional, cell-based. Conditions: U-251, 120 h.
The test system of data set [3] is U-87 MG. Put plainly: Antiproliferative activity against human U87MG cells after 5 days by CyQuantGR dye-based fluorescence assay. It counts as functional, cell-based, U-87MG ATCC. The following applies: 120 h.
Data set [4] relates to T98G. The experiment in a line: Antiproliferative activity against human T98G cells after 5 days by CyQuantGR dye-based fluorescence assay. Conditions: 120 h. It counts as functional, cell-based.
Data set [5] has as its system U-118-MG. The experiment in a line: Antiproliferative activity against human U118MG cells after 5 days by CyQuantGR dye-based fluorescence assay. It counts as functional, cell-based. Conditions: 120 h.
Data set [6] can be described thus: Tmax in […] mouse at 25 micromol/kg, ip administered as single dose by mass spectrometric analysis. It counts as ADME, organism-based. Conditions: in vivo, 25 µmol/kg.
Data set [7] can be described thus: Half life in […] mouse at 25 micromol/kg, ip administered as single dose by mass spectrometric analysis. It counts as ADME, organism-based. Conditions: in vivo, 25 µmol/kg.
Data set [8] can be described thus: Cmax in […] mouse at 25 micromol/kg, ip administered as single dose by mass spectrometric analysis. It counts as ADME, organism-based. On the set-up: route intraperitoneal. The following applies: in vivo, 25 µmol/kg.
The subject of data set [9] is U-87 MG. The experiment in a line: Inhibition of cell proliferation of human U87 cells over-expressing EGFRvIII at 5 uM. It counts as functional, U-87MG ATCC.
Data set [10] has as its system LN-229. Put plainly: Inhibition of cell proliferation of human LN229 cells at 5 uM. It counts as functional.
For data set [11], the system named is U-251. Put plainly: Inhibition of cell proliferation of human U251 cells at 5 uM. It counts as functional.
Data set [12] can be described thus: Antiproliferative activity against human RN1 cells assessed as reduction in cell viability after 72 hrs by AlamarBlue assay. The following applies: RN1, 72 h. It counts as functional, cell-based.
For data set [13], the system named is U-251. The experiment in a line: Antiproliferative activity against human U251 cells assessed as reduction in cell viability after 72 hrs in presence of irradiation by AlamarBlue assay. It counts as functional, cell-based. Conditions: U-251, light or radiation study. For orientation: The colour change of resazurin is a common sign of viable cells or microbes.

Data set [14] is described as follows: Antiproliferative activity against human RN1 cells assessed as reduction in cell viability after 72 hrs in presence of irradiation by AlamarBlue assay. It counts as functional, cell-based. Conditions: RN1, light or radiation study.
The nature of data set [15]: Antiproliferative activity against mouse GL26 cells after 120 hrs by WST-1 assay. It counts as functional, cell-based. Conditions: GL26, 120 h.
Data set [16] deals with U-251. The experiment in a line: Antiproliferative activity against human U251 cells after 120 hrs by WST-1 assay. It counts as functional, cell-based. The following applies: U-251, 120 h.
Data set [17] has as its system U-251. The experiment in a line: Antiproliferative activity against human U251MG cells after 120 hrs by SRB assay. It counts as functional, cell-based. Conditions: U-251, 120 h.
The test system of data set [18] is U-251. Put plainly: Antitumor activity against human U251 cells xenografted in CAnN. Cg-Foxn1nu/CrlCrlj nude mouse assessed as tumor growth inhibition at 240 mg/kg, ip dosed 5 times a week for 39 days relative to control. Conditions: U-251, ip, 936 h, read-out: TGI. It counts as functional. For orientation: Xenograft models place foreign cells or tissue in a host animal.

Data set [19] concerns U-251. The experiment in a line: Antitumor activity against human U251 cells xenografted in CAnN. Cg-Foxn1nu/CrlCrlj nude mouse assessed as inhibition of tumor weight at 240 mg/kg, ip dosed 5 times a week for 39 days relative to control. It counts as functional. The following applies: U-251, ip, 936 h.
The subject of data set [20] is U-251. The experiment in a line: Antiproliferative activity against human U251 cells after 6 days by cell counting analysis. It counts as functional. Conditions: U-251, 144 h.
Data set [21] deals with SF-268. Put plainly: Antiproliferative activity against human SF268 cells after 6 days by cell counting analysis. It counts as functional. Conditions: SF-268, 144 h.
The test system of data set [22] is SF-295. The experiment in a line: Antiproliferative activity against human SF295 cells after 6 days by cell counting analysis. It counts as functional. Conditions: SF-295, 144 h.
The subject of data set [23] is SF-539. The experiment in a line: Antiproliferative activity against human SF539 cells after 6 days by cell counting analysis. It counts as functional. Conditions: SF-539, 144 h.
In data set [24] the test system is SNB-75. Put plainly: Antiproliferative activity against human SNB75 cells after 6 days by cell counting analysis. It counts as functional. Conditions: SNB-75, 144 h.
Data set [25] concerns SNB-78. The experiment in a line: Antiproliferative activity against human SNB78 cells after 6 days by cell counting analysis. It counts as functional. Conditions: SNB-78, 144 h.
Data set [26] concerns U-87 MG. The experiment in a line: Cytotoxicity against human U87 cells after 72 hrs by AlamarBlue assay. It counts as functional, cell-based, U-87MG ATCC.
Data set [27] relates to U-87 MG. The experiment in a line: Cytotoxicity against human U87 cells expressing EGFRvIII after 72 hrs by AlamarBlue assay. It counts as functional, cell-based, U-87MG ATCC.
Data set [28] relates to U-251. Put plainly: Cytotoxicity against human U251 cells after 72 hrs by AlamarBlue assay. It counts as functional, cell-based. The following applies: U-251, 72 h.
Data set [29] concerns GBM. Put plainly: Cytotoxicity against GBM cells derived from human patient after 72 hrs by AlamarBlue assay. It counts as functional, cell-based.
Data set [30] has as its system U-251. Put plainly: Antiproliferative activity against human U251 cells after 72 hrs by coulter counting analysis. The following applies: U-251, 72 h. It counts as functional, cell-based.
Data set [31] in a line: Antiproliferative activity against human DBTRG cells after 72 hrs by coulter counting analysis. It counts as functional, cell-based.
The subject of data set [32] is U-87 MG. The experiment in a line: Antiproliferative activity against human U87MG cells after 72 hrs by coulter counting analysis. It counts as functional, cell-based, U-87MG ATCC.

`CN1CCN(C(=O)c2ccc3c(NC4CCN(Cc5ccccc5)CC4)c4ccccc4nc3c2)CC1`: the EC50 in data set [1] was determined as 4100 nM.
A word on the IC50: it is the concentration at which inhibition is half-maximal. What is called Tmax is the time from dosing to the highest level. As usually defined, the half-life is how long it takes for the measured level to halve. High values mean slow loss, low ones fast loss. By Cmax is commonly meant the peak of the concentration-time curve. Take `Cc1ccc(N(CCn2nnc3c(C(N)=O)ncn3c2=O)CCn2nnc3c(C(N)=O)ncn3c2=O)cc1`: the concentration for half-maximal inhibition (IC50) in data set [2] was 5200 nM; in [3], 14000 nM; in data set [4], 11300 nM; in data set [5], 10000 nM. In addition, the Tmax in [6] is 10 min. Moreover, in data set [7], the half-life is 14 min. In addition, the Cmax in data set [8] is 260 nM.
The term inhibition denotes the relative decrease from the control value, in per cent. Low values mean a weak effect, high ones a strong effect. As for `O=c1[nH]c2ncc(-c3ccc(-c4nc[nH]n4)cc3)nc2n1CCC1CCOCC1`, the inhibition at 5 µM in [9], in [10] and in data set [11] was 60% throughout.
Take `COc1cc(COc2ccc(NC(=O)CCCc3ccc(-c4cccnc4F)cc3)cc2)c([N+](=O)[O-])cc1OC`: the EC50 in data set [12] amounted to 37400 nM; in data set [13] it was 1300 nM; in [14], 300 nM.
Take `C=C1/C(=C/C=C2\CCC[C@]3(C)[C@@H]([C@H](C)CCCCNC(=O)CCC(=O)O)CC[C@@H]23)C[C@@H](O)C[C@@H]1O`: the IC50 in data set [15] stood at 0.016 nM; in [16], 0.457 nM.
For `CN(C)CCN1C(=O)c2cc(NCCc3ccc(O)c(CN(C)C)c3)c3c4c(cc(NCCc5ccc(O)c(CN(C)C)c5)c(c24)C1=O)C(=O)N(CCN(C)C)C3=O`, in [17], the IC50 worked out at 33 nM.
As usually defined, the GI50 is the concentration at which growth is held to half of that of the control. As to `Cc1oc2nc1-c1nc(co1)C(=O)N[C@@H](Cc1ccc(O)cc1)c1nc(c(C)o1)-c1nc(c(C)o1)-c1nc(co1)C(=O)N[C@@H](Cc1ccc(O)cc1)c1nc-2c(C)o1`, the inhibition in vivo at 240 mg/kg amounted to 33% in [18] and 61% in data set [19]. The GI50 in data set [20], in data set [21], in [22], in [23], in [24] and in data set [25] was 21 to 180 nM throughout.
Take `O=C(CCCc1ccc(-c2cc3ccccc3cn2)cc1)Nc1ccc(O)cc1`: the EC50 was 600 to 1300 nM in [26], 600 to 1300 nM in [27], 600 to 1300 nM in [28] and 540 nM in data set [29].
`Nc1c(-c2cccnc2)ncc2c1C(=O)c1c(-c3ccccn3)nn(-c3ccc(F)cc3F)c1C2=O`: the concentration for half-maximal inhibition (IC50) in data set [30], in data set [31] and in [32] was 2500 nM in each case.
